Results published in patent US20260035338A1, “AMINO LIPID COMPOUND AND LIPID NANOPARTICLE FOR DELIVERING BIOACTIVE INGREDIENT” (SHENZHEN SHENXIN BIOTECHNOLOGY CO., LTD., priority 2022, published 2026).

System: BALB/c mice
Experiment: In vivo delivery of Fluc mRNA-encapsulating LNP formulations, luciferase signal by In Vivo Imaging System (IVIS)
Details: tail vein injection (IV) 70 μL, female BALB/c mice, 6 hours after injection; for Average number of photons (Total in-vivo flux): LNP formulation encapsulating Fluc mRNA (Lipid:DSPC:CHO-HP:M-DMG-2000 48:10:40.5:1.5); for Average number of photons (Liver) / Average number of photons (Spleen): LNP formulation encapsulating Fluc mRNA
Procedure: Animal preparation: Female BALB/c mice of 6-8 weeks old were selected and raised in an SPF grade breeding room. Animal testing was conducted in strict accordance with the guidelines of national health institutions and animal ethics requirements.
In vivo Delivery: prior to injection of the test LNP formulation, the LNP formulation was gently and repeatedly inverted to thoroughly mix the sample of the formulation. A corresponding amount of the LNP formulation was aspirated with a 1 ml insulin syringe, and the LNP formulation was injected by tail vein injection (IV), with 3 mice in duplicate per formulation. Each mouse was injected with 70 μL of the corresponding LNP formulation encapsulating the luciferase mRNA (Fluc mRNA) prepared in Experimental Example 1.
6 hours after injection of LNP formulations, mice were injected with 200 μL D-Luciferin luciferase developing substrate (Catalog No. 122799; Manufacturer: Perkin Elmer). After the substrate was injected, the mice were anesthetized with isoflurane inhalation, and the injection time of luciferase developing substrate was recorded.
The encapsulation efficiency of the lipid nanoparticle encapsulating luciferase mRNA (Fluc mRNA) with a representative amino lipid compound and the fluorescence expression intensity induced by the same are shown in Table 4, with the LNP formulation containing SM-102, 1001 or ALC-0315 as a control LNP formulation. The preparation method of the control LNP formulation was basically the same as that of the LNP formulations in Experimental Example 1, with the difference lying in that the amino lipid compounds of the present disclosure were replaced with SM-102, 1001 or ALC-0315 in the preparation of the control LNP formulation.

SMILES	Average number of photons (Total in-vivo flux)	Average number of photons (Liver)	Average number of photons (Spleen)
CCCCCCCCC(CCCCCC)C(=O)OCCCCCCN(CCCCO)CCCCCCOC(=O)C(CCCCCC)CCCCCCCC (stereo not drawn) [ALC-0315, reference compound]	6.39E+08	1.23E+08	3.45E+06
CCCCCCCCCCCOC(=O)CCCCCN(CCO)CCCCCCCC(=O)OC(CCCCCCCC)CCCCCCCC [SM-102, reference compound]	3.00E+08	6.19E+07	6.42E+06
CCCCCCOC(CCCOC(=O)CCCCCCCCC(CCCCCCCCC(=O)OCCCC(OCCCCCC)OCCCCCC)OC(=O)N(CCCC(=O)OCCCCC)CCCN(C)C)OCCCCCC [compound 380]	4.05E+08	7.25E+07	6.79E+07
CCCCCCCOC(CCCOC(=O)CCCCCCCCC(CCCCCCCCC(=O)OCCCC(OCCCCCCC)OCCCCCCC)OC(=O)N(CCCC(=O)OCCCCC)CCCN(C)C)OCCCCCCC [compound 381]	2.46E+08	4.40E+07	1.96E+07
CCCCCCCOC(CCCOC(=O)CCCCCCCCC(CCCCCCCCC(=O)OCCCC(OCCCCCCC)OCCCCCCC)OC(=O)OCCCN(CC)CC)OCCCCCCC [compound 383]	6.10E+07	8.57E+06	1.53E+06
CCCCCOC(CCCOC(=O)CCCCCCCCC(CCCCCCCCC(=O)OCCCC(OCCCCC)OCCCCC)OC(=O)OCCCN(CC)CC)OCCCCC [compound 387]	6.66E+07	7.15E+06	6.77E+05
CCCCCCOC(CCCCCOC(=O)CCCCCCCCC(CCCCCCCCC(=O)OCCCCCC(OCCCCCC)OCCCCCC)OC(=O)OCCCN(CC)CC)OCCCCCC [compound 389]	2.99E+07	4.14E+06	8.58E+04
CCCCCOC(CCCCCOC(=O)CCCCCCCCC(CCCCCCCCC(=O)OCCCCCC(OCCCCC)OCCCCC)OC(=O)OCCCN(CC)CC)OCCCCC [compound 390]	5.23E+07	7.04E+06	3.84E+05
CCC/C=C\COC(CCCOC(=O)CCCCCCCCC(CCCCCCCCC(=O)OCCCC(OC/C=C\CCC)OC/C=C\CCC)OC(=O)OCCCN(CC)CC)OC/C=C\CCC [compound 392]	8.20E+07	1.50E+07	6.65E+05
CCCCCCOC(CCCOC(=O)CCCCCCCCC(CCCCCCCCC(=O)OCCCC(OCCCCCC)OCCCCCC)NC(=O)OCCCN(CC)CC)OCCCCCC [compound 393]	2.80E+08	5.44E+07	1.00E+07
CCCCCCOC(CCCOC(=O)CCCCCCCCC(CCCCCCCCC(=O)OCCCC(OCCCCCC)OCCCCCC)OC(=O)OCCCN1CCCC1)OCCCCCC [compound 396]	1.85E+08	3.24E+07	9.78E+05
CCCCCCOC(CCCOC(=O)CCCCCCCCC(CCCCCCCCC(=O)OCCCC(OCCCCCC)OCCCCCC)OC(=O)OCCC1CCCN1C)OCCCCCC (stereo not drawn) [compound 398]	1.79E+08	2.78E+07	6.36E+05
CCCCCCOC(CCCOC(=O)CCCCCCCCC(CCCCCCCCC(=O)OCCCC(OCCCCCC)OCCCCCC)OC(=O)NCCCN1CCCCC1C)OCCCCCC (stereo not drawn) [compound 399]	9.00E+07	1.96E+07	2.05E+06
CCCCCCOC(CCCOC(=O)CCCCCCCCC(CCCCCCCCC(=O)OCCCC(OCCCCCC)OCCCCCC)OC(=O)OCC1CCCN(C)C1)OCCCCCC (stereo not drawn) [compound 416]	2.16E+08	5.13E+07	3.99E+06
